Assay results from US20230270713A1, “Administration of Resiniferatoxin For Treatment of Bladder Pain or Bladder Cancer” (Sorrento Therapeutics, Inc., priority 2020, published 2023).

Legend:
Assay type in all cases: in vivo, dog
bladder cancer (TCC) = assay: Preliminary anti-cancer effect by bladder ultrasound in dogs with bladder cancer (Example D)
Description: (§1) Dogs with bladder cancer were treated with RTX as follows. Under general anesthesia, RTX was infused directly into the bladder using a foley catheter. RTX remained in the bladder for 30 minutes before removal.
The primary endpoint was assessment of improvement of lower urinary tract signs with a 4-point lower urinary tract symptom scale (character of urination/degree of straining; frequency of urination (daytime); frequency of urination (nighttime); and blood in urine). The secondary endpoints were anti-cancer effect, as measured by bladder ultrasound, and quality of life.

[1] = Adverse events in dogs with bladder cancer (Example D)
Description: as §1

[2] = Adverse effects in dogs with bladder TCC (Example F); conditions: 16 dogs with bladder TCC
Description: RTX was administered as a one-time treatment into the bladder on Day 0 with the option of repeating RTX at a future study day. A Foley urinary catheter was placed using a sterile standard technique. An abdominal ultrasound was concurrently performed to ensure that the tip of the catheter was in the bladder lumen. Urine was removed using a catheter tipped syringe.
RTX was diluted in 0.9% NaCl and then infused into the bladder. The catheter was then flushed with 5-6 mL of 0.9% NaCl to ensure the entire IVP volume was administered. The Foley catheter was capped and remained in place for a period of 30 minutes post-infusion. The bladder was then emptied prior to removal of the Foley catheter. The timing of recovery was managed on an individual basis, but it was recommended to initiate recovery approximately 10 minutes after RTX infusion.

With `C=C(C)[C@]12C[C@@H](C)[C@@]34O[C@](Cc5ccccc5)(O[C@@H]1[C@@H]3C=C(COC(=O)Cc1ccc(O)c(OC)c1)C[C@]1(O)C(=O)C(C)=C[C@@H]41)O2` [RTX, resiniferatoxin] the “Best overall tumor response: change in largest tumor diameter” value (bladder cancer (TCC); Case 03-01, 9.0 kg dog, 25 ug (2.8 ug/kg), Day 84) was −30%, the “Best Overall Response: tumor volume” value (bladder cancer (TCC); Case 41-02, 38.8 kg dog, 50 ug (1.3 ug/kg) dosed twice 28 days apart, Day 28) was −24% and the “Adverse events considered possibly attributable to RTX” value ([1]; Case 03-01, 25 ug (2.8 ug/kg), Day 0) was “Bladder spasm, urinating around catheter (Grade 1)”. The “Adverse events considered possibly attributable to RTX” value ([1]; Case 03-02, 50 ug (2.6 ug/kg)) was “none”, the “Adverse events considered possibly attributable to RTX” value ([1]; Case 41-02, 50 ug (1.3 ug/kg) dosed twice, Day 1) was “crying out after urination (Grade 1)” and the “Adverse events considered possibly attributable to RTX” value ([1]; Case 47-02, 50 ug (2.0 ug/kg), Day 0) was “diarrhea, vomiting, hyperoxia (Grade 1)”. The dose-limiting toxicity ([1]; dogs with bladder cancer) was “No dose-limiting toxicity was observed”, the adverse events ([1]; dogs with bladder cancer, 25-100 ug intravesical) was “minimal, mild, and transient” and the “grade of adverse events” value ([1]; dogs with bladder cancer, all adverse events) was “grade 1”. For the same molecule, the Tolerability ([1]; dogs with bladder cancer, all tested doses incl. maximum 50 ug or 2.8 ug/kg dosed twice 28 days apart) was “tolerated at all tested doses”, the Tolerability [2] was “very well tolerated” and the “dose dependence of the most commonly reported AE (emesis, diarrhea, anorexia)” value [2] was “did not appear to be dose dependent”. For the same molecule, the “AE anorexia, number of dogs” value ([2]; RTX 25-100 μg intravesical) was 4 dogs, the “AE anorexia, percent of dogs” value ([2]; RTX 25-100 μg intravesical) was 25.0% and the “AE diarrhea, number of dogs” value ([2]; RTX 25-100 μg intravesical) was 5 dogs. The “AE diarrhea, percent of dogs” value ([2]; RTX 25-100 μg intravesical) was 31.3%, the “AE emesis, number of dogs” value ([2]; RTX 25-100 μg intravesical) was 6 dogs and the “AE emesis, percent of dogs” value ([2]; RTX 25-100 μg intravesical) was 37.5%. For the same molecule, the “AE lethargy, number of dogs” value ([2]; RTX 25-100 μg intravesical) was 4 dogs, the “AE lethargy, percent of dogs” value ([2]; RTX 25-100 μg intravesical) was 25.0% and the “dogs with an SAE” value ([2]; SAE considered most likely related to tumor progression) was 1 dog. For the same molecule, the “severity of the most common AEs” value ([2]; except one anorexia event considered severe) was “mild to moderate (Grade 1 or 2)”.
